The source of these data is patent US7049336B2, “Method for diagnosing neuronal diseases and for treating primary hemostasis deficiency” (Max-Delbruck-Centrum fur Molekularc Medizin, priority 2000, dated 2006).

The assay has as its system TPH(−/−)-mice. Kind of assay: Bleeding time (disturbed hemostasis) in TPH(−/−)-mice after intracardial injection. The conditions noted are these: for Effect on prolonged bleeding time phenotype: TPH(−/−)-mice. Type of assay: in vivo, mouse. The text has this: FIG. 3. Disturbed hemostasis in TPH(−/−)-mice. • A. Prolonged bleeding times of TPH(−/−)-animals. […] The 5-HT-amounts applied result in 1/10 and the ten-fold of the normal blood concentrations. • C. […] The effect is specific for the TPH(−/−)-mice, whereas control-animals are not affected.

For the compound `NCCc1c[nH]c2ccc(O)cc12` [5-HT, serotonin, reference compound], the “Effect on prolonged bleeding time phenotype” value (intracardial 5-HT-injection, amounts result in 1/10 and the ten-fold of the normal blood concentrations) is reported as “Healing of the phenotype”. For “von Willebrand-factor: commercially available von Willebrand-factor (vWF)”, the “Effect on prolonged bleeding time phenotype” value (intracardial von Willebrand-factor injection) is “Healing of the phenotype”. For the setting “control-animals, intracardial von Willebrand-factor injection”, the “Effect on bleeding time in control-animals” value is “not affected”.
